Laboratory results from patent publication US20150337349A1, “Microbiome Modulation Index” (SECOND GENOME, INC., priority 2013, published 2015).
Structures can show the parent of a compound that is named as a salt.

System: fecal microbial communities (OTUs)
Assay: Microbiome Modulation Index (MMI) from 16S rRNA V4 profiling of fecal samples before and after agent administration
Format: in vivo, c57bl/6 mice
Conditions: oral gavage daily for 5 consecutive days at Table 1 mouse dose; day 0 vs day 5 fecal samples; MMI = d/d0 relative to control mice; variability weight gi applied
Description: Twenty five agents were selected to span multiple indications (Table 1). For each agent, the effective dose for the mouse was determined through a comprehensive search of the literature (Table 1). Working formulations were created by suspending agents in 1× phosphate buffered saline (PBS).
A total of 156 six-week old c57bl/6 mice (78 males and 78 females) were housed in separate cages 5 days prior to agent administration. Animals were handled daily by caretakers during this acclimation period. Animals were fed a standard chow diet throughout the course of the study.
Animals were treated with agents via oral gavage daily for 5 consecutive days beginning on day 1. N=6 mice per agent; 3 male+3 female. Fecal samples were collected using the ‘clean catch’ method in which the mice were held by the tail, causing them to defecate. Feces were collected in a sterile tube and immediately frozen and stored at −80° C. Fecal samples were collected in the morning prior to agent administration on the following days: −1,0,4,5.
Frozen day 0 and day 5 fecal specimens corresponding to 15 treatment groups (PBS+(Table 3) were profiled using Second Genome's Microbiome Signature Discovery™ service (San Bruno, Calif.). DNA was isolated using the PowerSoil DNA Isolation Kit following the manufacturer's instructions (MoBio Laboratories, Carlsbad, Calif.). For V4 sequencing assay profiling, the V4 region of the 16S rRNA genes was amplified using fusion primers tailed with Illumina sequencing adapters and indexing barcodes according to a previously described technique (Caporaso, 2010, PMID: 20534432). For each sample, amplified products were concentrated, purified and quantified by electrophoresis using an Agilent 2100 Bioanalyzer, then pooled for sequencing using the MiSeq (Illumina, San Diego, Calif.) instrument.
Using the software QIIME (Kuczynski, 2012, PMID: 23184592) and custom scripts, sequences were quality filtered and de-multiplexed using exact matches to the supplied DNA barcodes. Resulting sequences were then clustered into reference OTUs (rOTUs) by uclust (Edgar, 2010, PMID: 20709691) matching each sequence against the Greengenes sequences pre-clustered at 97%, a practice commonly referred to as “closed-reference OTU picking”. The longest Illumina-generated sequence from each of OTUs thus formed was then used as the OTU representative sequence, and assigned taxonomic classification via mothur's bayesian classifier (Schloss, 2009, PMID: 19801464) trained against the Greengenes database. Taxonomic annotations at 80% bootstrapped confidence were applied. Total sequence counts per fecal sample were scaled to be identical. Seven samples (MDO5M027D0, MD10M057D0, Md12F07D0, MD01F006D5, MD06F035D5, MD13M074D5, and MD04F023D5) were excluded following sequence quality filtering and alignment due to low sequence yield. Taxa were filtered to those present in at least one of the samples.
MMIs were calculated for the PBS control and 14 of the tested drugs. To calculate the MMI of an agent, an intermediate value d was calculated for each mouse administered with the respective agent. The abundance of each OTU before treatment in that mouse was compared to the abundance of that OTU after treatment as in exemplary Equation 11: […]
where A1i represents the abundance of OTU i at time-point 1 (post-administration), where A0i represents the abundance of OTU i at time-point 0 (pre-administration) gi represents a variability weight applied to each OTU, discussed below.
Once d was calculated for each mouse, d values for each administered mouse are averaged, and the resulting d was compared to a reference level of change d0 in a control group of mice not administered the agent. The value d0 is determined on the basis of laboratory studies of untreated mice in similar conditions (e.g., a similar number of samples to the number of samples obtained from treated mice).
The MMI is then calculated as in exemplary Equation 12: […]

SMILES | MMI
CC(=O)Oc1ccccc1C(=O)O [Acetylsiacylic_acid] | 1.093
NCCCC(O)(P(=O)(O)O)P(=O)(O)O [Alendronate_sodium_trihydrate] | 1.107
CC1(C)S[C@@H]2[C@H](NC(=O)[C@H](N)c3ccc(O)cc3)C(=O)N2[C@H]1C(=O)O [Amoxycillin] | 2.397
CC(C)c1c(C(=O)Nc2ccccc2)c(-c2ccccc2)c(-c2ccc(F)cc2)n1CC[C@@H](O)C[C@@H](O)CC(=O)O [Atorvastatin_calcium_salt_trihydrate] | 1.278
CC[C@H]1OC(=O)[C@H](C)[C@@H](O[C@H]2C[C@@](C)(OC)[C@@H](O)[C@H](C)O2)[C@H](C)[C@@H](O[C@@H]2O[C@H](C)C[C@H](N(C)C)[C@H]2O)[C@](C)(O)C[C@@H](C)CN(C)[C@H](C)[C@@H](O)[C@]1(C)O [Azithromycin] | 2.202
CCN(CC)CCOC(=O)C1(C2CCCCC2)CCCCC1 [Dicyloamine_hydrochloride] | 1.222
CN(C)CCOC(c1ccccc1)c1ccccc1 [Diphenhydramine_hydrochloride] | 1.202
COc1ccc2[n-]c([S@@+]([O-])Cc3ncc(C)c(OC)c3C)nc2c1.COc1ccc2[n-]c([S@@+]([O-])Cc3ncc(C)c(OC)c3C)nc2c1.[Mg+2] [Esomeprazole_magnesium_hydrate] | 1.1
OC(Cn1cncn1)(Cn1cncn1)c1ccc(F)cc1F [Fluconazole] | 1.003
CNCCC(Oc1ccc(C(F)(F)F)cc1)c1ccccc1 (centres unmarked) [Fluoxetine_hydrochloride] | 1.44
Nc1ccc(O)c(C(=O)O)c1 [Mesalamine] | 1.131
CN(C)C(=N)N=C(N)N [Metformin_hydrochloride] | 1.628
C[C@]12C=CC(=O)C=C1CC[C@@H]1[C@@H]2[C@@H](O)C[C@@]2(C)[C@H]1CC[C@]2(O)C(=O)COC(=O)CCC(=O)[O-].[Na+] [Prednisalone_21-hemisuccinate_sodium_salt] | 1.262
Cc1ccc(-c2nc3ccc(C)cn3c2CC(=O)N(C)C)cc1 [Zolpidem_tartrate] | 1.443
